Results from PubChem BioAssay AID602251 (NMMLSC, 2012).
The source made the active and inactive calls.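 Rule for the calls: active = fitted concentration giving half of the maximal binding block below 66 µM; inactive = the rest.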

These compounds were tested against anti-desmoglein 3 scFv antibody binding to human desmoglein 3 (DSG3) (assay: inhibitors of anti-DSG3 scFv binding to DSG3, dose response, biochemical, DSG3-coupled beads, scFv-GFP, flow cytometry, Cherry Pick 1 (AID 602251)). Conditions: at 66.1 µM (top of the series).
For `COc1ccc(NC(=O)c2cc(-c3ccc(C)o3)nc3ccccc23)cc1OC`, the “binding response, lower = inhibition” value was “inactive”.
With `O=C(Nc1ccc(N2CCN(C(=O)c3ccccc3)CC2)cc1)c1cc2ccccc2o1` the “binding response, lower = inhibition” value was “inactive”.
With `CCc1nnc(NC(=O)CSc2ncnc3c2oc2ccccc23)s1` the “binding response, lower = inhibition” value was “inactive”.
With `O=C(COC(=O)Cc1ccc(-c2ccccc2)cc1)NCc1ccc(F)cc1` the “binding response, lower = inhibition” value was “inactive”.
For `CCOc1ccc(NC(=O)c2ccc(NC(=O)CSc3nc4ccccc4c(=O)[nH]3)cc2)cc1`, the “binding response, lower = inhibition” value was “inactive”.
With `Cc1ccc(O)c(NC(=O)c2ccc3c(c2)C(=O)N(Cc2cccnc2)C3=O)c1` the “binding response, lower = inhibition” value was “inactive”.
`O=C(Nc1ccc(Nc2ccccc2)cc1)c1ccc(Br)cc1` was tested, and the “binding response, lower = inhibition” value was “inactive”.
For `COc1ccc(C(C(=O)NC2CCCCC2)N(CC2CCCO2)C(=O)C2COc3ccccc3O2)cc1OC` (stereo unspecified), the “binding response, lower = inhibition” value was “inactive”.
With `O=C(Nc1ccc2c(c1)OCO2)C1CCN(c2ccc(S(=O)(=O)N3CCOCC3)cc2)CC1` the “binding response, lower = inhibition” value was “inactive”.
For `CCOC(=O)c1cn(-c2ccc([N+](=O)[O-])cc2)c2cc(Cl)c([N+](=O)[O-])cc2c1=O`, the “binding response, lower = inhibition” value was “inactive”.
In the case of `C#CCn1c(=NC(=O)c2sc3ccccc3c2Cl)sc2cc(S(N)(=O)=O)ccc21`, the “binding response, lower = inhibition” value is reported as “inactive”.
`Cc1cc(NC(=O)c2cc(-c3ccccn3)nc3ccc(Br)cc23)no1` was tested, and the “binding response, lower = inhibition” value was “inactive”.
For `Cc1c([N+](=O)[O-])cc(C(=O)Nc2ccc(NC(=O)c3ccco3)cc2)cc1[N+](=O)[O-]`, the “binding response, lower = inhibition” value was “inactive”.
With `O=C1c2ccc(-c3ccc(F)cc3OCc3ccccc3)cc2S(=O)(=O)c2cccc(C(=O)N3CCN(c4ncc(Br)cn4)CC3)c21` the “binding response, lower = inhibition” value was “inactive”.
In the case of `Cc1c(C(=O)Nc2ccc(OCc3ccccc3)cc2)cccc1[N+](=O)[O-]`, the “binding response, lower = inhibition” value is reported as “inactive”.
In the case of `COc1ccc(C(=O)Nc2ccc(Oc3ncnc4sc(-c5ccccc5)cc34)cc2)cc1OC`, the “binding response, lower = inhibition” value is reported as “inactive”.
For `CS(=O)(=O)c1ccc2nc(NC(=O)Nc3ccccc3F)sc2c1`, the “binding response, lower = inhibition” value was “inactive”.
In the case of `COc1ccc(Cl)c(NC(=O)NCCN2CCN(c3ccccc3)CC2)c1`, the “binding response, lower = inhibition” value is reported as “inactive”.
With `O=C(NC1CCCC1)C(c1ccc(O)cc1)N(CC1CCCO1)C(=O)C1COc2ccccc2O1` (stereo unspecified) the “binding response, lower = inhibition” value was “inactive”.
With `O=C(NCCCN1CCOCC1)c1cc(-c2cccc(Br)c2)nc2ccccc12` the “binding response, lower = inhibition” value was “inactive”.
`O=C1NN(c2cccc(Br)c2)C(=O)/C1=C/c1ccc(-c2cc([N+](=O)[O-])ccc2O)o1` was tested, and the “binding response, lower = inhibition” value was “inactive”.
With `O=C(Nc1ccc(NS(=O)(=O)c2ccccc2)cc1)c1ccc(Cl)cc1` the “binding response, lower = inhibition” value was “inactive”.
For `CCCCN(C)CCNC(=O)c1cc(-c2cccnc2)nc2ccc(S(=O)(=O)N3CCC(C)CC3)cc12`, the “binding response, lower = inhibition” value was “inactive”.
`CCOC(=O)C1=C(N)n2c(s/c(=C\c3cccnc3)c2=O)=C(C(=O)OC)C1c1cccnc1` (stereo unspecified) was tested, and the “binding response, lower = inhibition” value was “inactive”.
In the case of `COc1cc(OC)cc(C(=O)OCc2cc3ccccc3[nH]c2=O)c1`, the “binding response, lower = inhibition” value is reported as “inactive”.
In the case of `O=C(O)CCC(=O)NCCC1=c2ccccc2=N/C1=C\c1c(O)n(Cc2ccc(F)cc2)c(=S)[nH]c1=O`, the “binding response, lower = inhibition” value is reported as “inactive”.
In the case of `CCOC(=O)CN1C(=O)/C(=C/c2ccccc2Br)Oc2ccccc21`, the “binding response, lower = inhibition” value is reported as “inactive”.
For `Cc1ccc2oc(-c3ccc(NC(=O)CC(C)C)cc3)nc2c1`, the “binding response, lower = inhibition” value was “inactive”.
For `Nc1c(C(=O)c2ccccc2)oc2ccc([N+](=O)[O-])cc12`, the “binding response, lower = inhibition” value was “inactive”.
In the case of `COc1cccc(C(C(=O)NC2CCCCC2)N(CCN2CCOCC2)C(=O)C2COc3ccccc3O2)c1` (stereo unspecified), the “binding response, lower = inhibition” value is reported as “inactive”.
In the case of `CN1C(=O)/C(=C/c2cccn2-c2ccc3ccccc3c2)C(=O)NC1=S`, the “binding response, lower = inhibition” value is reported as “inactive”.
`C=CCSc1nc(N)c(C#N)c(-c2ccccc2)c1C#N` was tested, and the “binding response, lower = inhibition” value was “inactive”.
For `COc1cc2sc3ccc(C#Cc4ccccn4)cc3c(=O)c2cc1OC`, the “binding response, lower = inhibition” value was “inactive”.
For `CCOC(=O)c1cc(-c2ccc(/C=C3/C(=O)N(c4ccc(C(=O)O)cc4)N=C3C)o2)ccc1Cl`, the “binding response, lower = inhibition” value was “inactive”.
For `CCC(C)n1cnc2c(c1=O)c1nc3ccccc3nc1n2-c1ccc2c(c1)OCCO2` (stereo unspecified), the “binding response, lower = inhibition” value was “inactive”.
In the case of `COC(=O)c1sc(NC(=O)c2cc(-c3ccccc3)nc3ccccc23)c(C#N)c1C`, the “binding response, lower = inhibition” value is reported as “inactive”.
`Cc1ccsc1-c1nc(-c2ccccc2)c(-c2ccccc2)[nH]1` was tested, and the “binding response, lower = inhibition” value was “inactive”.
For `Cc1cc(=O)oc2c(C)c(OCC(=O)NCc3ccccn3)ccc12`, the “binding response, lower = inhibition” value was “inactive”.
With `CC(=O)Nc1cccc(NC(=O)CSc2ccc(C(F)(F)F)cc2[N+](=O)[O-])c1` the “binding response, lower = inhibition” value was “inactive”.
With `CCOc1ccc(S(=O)(=O)N2CCN(C(=O)c3ccccc3Cc3ccccc3)CC2)cc1` the “binding response, lower = inhibition” value was “inactive”.
In the case of `O=C(NCCN1C(=O)S/C(=C\c2ccc(Cl)c(Cl)c2)C1=O)c1cnccn1`, the “binding response, lower = inhibition” value is reported as “inactive”.
